Measured values from publication PMC11243672, “New 3-(Dibenzyloxyphosphoryl)isoxazolidine Conjugates of N1-Benzylated Quinazoline-2,4-diones as Potential Cytotoxic Agents against Cancer Cell Lines” (Molecules, 2024).

Experiments:
[1] = tested on: prostate cancer cells (PC-3); assay: MTS-based cytotoxicity assay, PC-3; assay type: cell-based, human; conditions: 72 h treatment, 0.205–50 μM, mean ± SEM
Method: (§1) In this study, we applied the most extensively used MTS-based assay, which provides a valuable tool for determining cell viability by evaluating metabolic activity. The cytostatic activity of the tested compounds was defined as the half-maximal inhibitory concentration (IC50) causing a 50% decrease in the metabolic activity of the cells. It was determined against breast cancer (MCF-7), fibrosarcoma (HT-1080), and prostate cancer (PC-3) cells.
(§2) The tested compounds were tested against three different human cancer cell lines (breast adenocarcinoma MCF-7 ATCC® HTB-22^TM, fibrosarcoma HT-1080 ATCC® CCL121^TM, and prostate adenocarcinoma PC-3 ATCC® CRL-1435^TM). For the cell viability experiment, cells were seeded in transparent 96-well plates (FALCON no. 353072, Corning, Durham, NC, USA) in MEM (Gibco no. 31095-029, UK) supplemented with 10% heat-inactivated FBS (Gibco no. 10500-064, UK). The cell seeding density was as follows: MCF-7 12,000 cells/well, HT-1080 7000 cells/well, PC-3 10,000 cells/well. Cells were seeded one day before treatment with the tested compounds and cultured overnight. The confluence on the treatment day was around 30%. The tested compounds were dissolved in DMSO as 10 mM stock solutions and kept under −4 °C. On the day of experimentation, the medium was removed and replaced with a fresh one that contained the following: (1) dimethylsulfoxide (DMSO < 0.1%, vehicle control (Veh)); (2) increasing the concentration of compounds (0.205–50 μM, performed as a 2.5-fold serial dilution for dose–response analysis). Treatment with compounds was carried out for 72 h. Each treatment was replicated three times in a single experiment, with three separate experiments conducted. (n = 9). When significant variability in the results occurred, an additional test was performed on certain compounds. During the incubation, the cells were examined under an inverted microscope to check if the compounds had not precipitated in the culture medium. The inhibitory effect of compounds on the cell was examined using an MTS-based assay (Promega, Madison, WI, USA) following the manufacturer’s protocol. The absorbance was measured at 490 nm using Tecan Spark’s multimode plate reader (Tecan, Männedorf, Switzerland). A reference wavelength of 630 nm was used to subtract the background. IC50 values were calculated by fitting a non-linear regression to a sigmoidal dose–response curve in GraphPad Prism version 8.0.1.

[2] = tested on: fibrosarcoma cells (HT-1080); assay: MTS-based cytotoxicity assay, HT-1080; assay type: cell-based, human; conditions: 72 h treatment, 0.205–50 μM, mean ± SEM
Method: as §1, §2

[3] = tested on: breast cancer cells (MCF-7); assay: MTS-based cytotoxicity assay, MCF-7; assay type: cell-based, human; conditions: 72 h treatment, 0.205–50 μM, mean ± SEM
Method: as §1, §2

HCT-116 = tested on: HCT-116; parameters: method as in PMID 37903949; conditions: cytotoxic activity; cited from earlier work
[4] = tested on: human hepatoma cells (HepG2); assay: Safety study in vitro (MTS viability), HepG2; assay type: cell-based; conditions: 0.205–50 μM, 72 h
Method: (§3) In drug development, particular attention should be paid to studying the safety profile of compounds. Promising drug candidates should not cause adverse effects on essential organ systems like the liver, kidney, or healthy cells in general. Systemic toxicity of the compound is the main factor limiting its therapeutic application and efficiency. In our study, a preliminary study on nephrotoxicity and hepatotoxicity was evaluated in human embryonic kidney cells (HEK293, ATCC® CRL1573™) and human hepatoma cells (HepG2, ATCC® HB8065™), respectively. HEK293 is commonly used to evaluate the cytotoxicity of nephrotoxic compounds [42]. HepG2 is a well-established in vitro human cell system to study liver toxicity. We also used healthy human skin fibroblast (HSF) to extend the cytotoxicity profile. All three cell lines were cultured in DMEM (Gibco no. 61965-026, UK) supplemented with 10% FBS (Gibco no. 10500-064, UK). For the experiment, cells were seeded (8 × 10^3 cells/100μL/well) in transparent 96-well plates (FALCON no. 353072, Corning, Durham, […], USA) and cultured overnight. […] DOX was a reference compound that adversely affected the liver, kidney, and healthy cells. Treatment with compounds was carried out for 72 h. Cell viability was examined using an MTS-based CellTiter96® AQueous One Solution Cell Proliferation Assay (Promega, Madison, WI, USA) following the manufacturer’s protocol.

[5] = tested on: human skin fibroblast (HSF); assay: Safety study in vitro (MTS viability), HSF; assay type: cell-based; conditions: 0.205–50 μM, 72 h
Method: as §3

[6] = tested on: human embryonic kidney cells (HEK293); assay: Safety study in vitro (MTS viability), HEK293; assay type: cell-based; conditions: 0.205–50 μM, 72 h
Method: as §3

[7] = tested on: colorectal adenoma cancer cell line (HT-29); parameters: method as in doi:10.1016/j.tet.2006.12.076; conditions: cancer cell line growth inhibition; cited from earlier work

Work on `O=c1c2ccccc2n(C[C@@H]2C[C@@H](P(=O)(OCc3ccccc3)OCc3ccccc3)N(Cc3ccccc3)O2)c(=O)n1Cc1cccc(F)c1` (relative stereo) [trans-16c, Dibenzyl cis- and trans-5-((3-(3-fluorobenzyl)-3,4-dihydro-2,4-dioxoquinazolin-1(2H)-yl)methyl)-2-benzylisoxazolidin-3-yl-3-phosphonate] yielded an IC50 ([1]; Homo sapiens, 72 h) of 16.4 ± 4.32 µM, an IC50 ([2]; Homo sapiens, HT-1080, 72 h) of 42.3 ± 3.48 µM and an IC50 ([3]; Homo sapiens, MCF7, 72 h) of 130 ± 9.97 µM.
`O=c1c2ccccc2n(C[C@@H]2C[C@@H](P(=O)(OCc3ccccc3)OCc3ccccc3)N(Cc3ccccc3)O2)c(=O)n1Cc1ccc(F)cc1` (relative stereo) [trans-16d, Dibenzyl cis- and trans-5-((3-(4-fluorobenzyl)-3,4-dihydro-2,4-dioxoquinazolin-1(2H)-yl)methyl)-2-benzylisoxazolidin-3-yl-3-phosphonate] gave an IC50 ([1]; Homo sapiens, 72 h) of 13.9 ± 2.14 µM, an IC50 ([2]; Homo sapiens, HT-1080, 72 h) of 35.6 ± 3.03 µM and an IC50 ([3]; Homo sapiens, MCF7, 72 h) of 88.9 ± 3.86 µM.
`O=c1c2ccccc2n(C[C@@H]2C[C@@H](P(=O)(OCc3ccccc3)OCc3ccccc3)N(Cc3ccccc3)O2)c(=O)n1Cc1ccccc1[N+](=O)[O-]` (relative stereo) [trans-16e, Dibenzyl cis- and trans-(2-benzyl-5-((3-(2-nitrobenzyl)-2,4-dioxo-3,4-dihydroquinazolin-1(2H)-yl)methyl)isoxazolidin-3-yl)phosphonate] showed an IC50 ([1]; Homo sapiens, 72 h) of 26.6 ± 1.09 µM, an IC50 ([2]; Homo sapiens, HT-1080, 72 h) of 29.8 ± 4.75 µM and an IC50 ([3]; Homo sapiens, MCF7, 72 h) of 57.9 ± 8.36 µM.
`O=c1c2ccccc2n(C[C@@H]2C[C@@H](P(=O)(OCc3ccccc3)OCc3ccccc3)N(Cc3ccccc3)O2)c(=O)n1Cc1cccc([N+](=O)[O-])c1` (relative stereo) [trans-16f, Dibenzyl cis- and trans-2-benzyl-5-((3-(3-nitrobenzyl)-2,4-dioxo-3,4-dihydroquinazolin-1(2H)-yl)methyl)isoxazolidin-3-yl)phosphonate] gave an IC50 ([1]; Homo sapiens, 72 h) of 18.1 ± 0.98 µM, an IC50 ([2]; Homo sapiens, HT-1080, 72 h) of 23.1 ± 9.22 µM and an IC50 ([3]; Homo sapiens, MCF7, 72 h) of 59.4 ± 0.78 µM.
In the case of `O=c1c2ccccc2n(C[C@@H]2C[C@@H](P(=O)(OCc3ccccc3)OCc3ccccc3)N(Cc3ccccc3)O2)c(=O)n1Cc1ccc([N+](=O)[O-])cc1` (relative stereo) [trans-16g, Dibenzyl cis- and trans-(2-benzyl-5-((3-(4-nitrobenzyl)-2,4-dioxo-3,4-dihydroquinazolin-1(2H)-yl)methyl)isoxazolidin-3-yl)phosphonate], the IC50 ([1]; Homo sapiens, 72 h) is reported as 16.7 ± 3.48 µM, the IC50 ([2]; Homo sapiens, HT-1080, 72 h) is reported as 16.6 ± 3.11 µM and the IC50 ([3]; Homo sapiens, MCF7, 72 h) is reported as 142 ± 5.11 µM.
For `O=C(O)c1ccc(NC(=S)NC(=O)c2ccc(-n3c(=O)[nH]c4ccccc4c3=O)cc2)cc1` [Compound 13], the IC50 (HCT-116) is listed as 1.18 ± 0.06 µM.
In the case of `COc1cccc2c1C(=O)c1c(O)c3c(c(O)c1C2=O)C[C@@](O)(C(=O)CO)C[C@@H]3O[C@H]1C[C@H](N)[C@H](O)[C@H](C)O1` [Doxorubicin, reference compound], the “Cell viability, HepG2” value [4] is reported as “significant cytotoxic effect”, the “Cell viability, HSF” value [5] is reported as “significant cytotoxic effect” and the “Cell viability, HEK293” value [6] is reported as “significant cytotoxic effect”.
In the case of `CO[C@@]12[C@H](COC(N)=O)C3=C(C(=O)C(C)=C(N)C3=O)N1C[C@@H]1N[C@@H]12` [Mitomycin C], the “GI, HT-29” value [7] is listed as 31%.
With `O=c1c2ccccc2n(CC2CC(P(=O)(OCc3ccccc3)OCc3ccccc3)N(Cc3ccccc3)O2)c(=O)n1Cc1ccccc1` (stereo not drawn) [cis-16a/trans-16a (97:3), Dibenzyl cis- and trans-2-benzyl-5-((3-benzyl-3,4-dihydro-2,4-dioxoquinazolin-1(2H)-yl)methyl)isoxazolidin-3-yl-3-phosphonate] the “Cell viability, HepG2” value [4] was “did not affect cell viability”, the IC50 ([1]; Homo sapiens, 72 h) was 12.6 ± 5.56 µM and the “Cell viability, HSF” value [5] was “no adverse effect was observed”. For the same molecule, the “Cell viability, HEK293” value [6] was “did not affect cell viability”, the IC50 [2] was 19.9 ± 8.13 µM and the IC50 ([3]; Homo sapiens, MCF7, 72 h) was 90.3 ± 4.57 µM.
For `O=c1c2ccccc2n(CC2CC(P(=O)(OCc3ccccc3)OCc3ccccc3)N(Cc3ccccc3)O2)c(=O)n1Cc1ccccc1F` (stereo not drawn) [cis-16b/trans-16b (90:10), Dibenzyl cis- and trans-5-((3-(2-fluorobenzyl)-3,4-dihydro-2,4-dioxoquinazolin-1(2H)-yl)methyl)-2-benzylisoxazolidin-3-yl-3-phosphonate], the “Cell viability, HepG2” value [4] was “did not affect cell viability”, the IC50 ([1]; Homo sapiens, 72 h) was 11.2 ± 1.99 µM and the “Cell viability, HSF” value [5] was “no adverse effect was observed”. For the same molecule, the “Cell viability, HEK293” value [6] was “did not affect cell viability”, the IC50 ([2]; Homo sapiens, HT-1080, 72 h) was 27.3 ± 5.43 µM and the IC50 ([3]; Homo sapiens, MCF7, 72 h) was 104 ± 7.38 µM.
Molecule `O=c1c2ccccc2n(CC2CC(P(=O)(OCc3ccccc3)OCc3ccccc3)N(Cc3ccccc3)O2)c(=O)n1Cc1cccc(F)c1` (stereo not drawn) [cis-16c/trans-16c (90:10), Dibenzyl cis- and trans-5-((3-(3-fluorobenzyl)-3,4-dihydro-2,4-dioxoquinazolin-1(2H)-yl)methyl)-2-benzylisoxazolidin-3-yl-3-phosphonate] has an IC50 ([1]; Homo sapiens, 72 h) of 17.6 ± 6.21 µM, an IC50 ([2]; Homo sapiens, HT-1080, 72 h) of 20.5 ± 1.56 µM and an IC50 ([3]; Homo sapiens, MCF7, 72 h) of 238 ± 20.7 µM.
Molecule `O=c1c2ccccc2n(CC2CC(P(=O)(OCc3ccccc3)OCc3ccccc3)N(Cc3ccccc3)O2)c(=O)n1Cc1ccc(F)cc1` (stereo not drawn) [cis-16d/trans-16d (96:4), Dibenzyl cis- and trans-5-((3-(4-fluorobenzyl)-3,4-dihydro-2,4-dioxoquinazolin-1(2H)-yl)methyl)-2-benzylisoxazolidin-3-yl-3-phosphonate] has an IC50 ([1]; Homo sapiens, 72 h) of 16.4 ± 3.69 µM, an IC50 ([2]; Homo sapiens, HT-1080, 72 h) of 10.4 ± 2.69 µM and an IC50 ([3]; Homo sapiens, MCF7, 72 h) of 116 ± 5.73 µM.
`O=c1c2ccccc2n(CC2CC(P(=O)(OCc3ccccc3)OCc3ccccc3)N(Cc3ccccc3)O2)c(=O)n1Cc1ccccc1[N+](=O)[O-]` (stereo not drawn) [cis-16e/trans-16e (70:30), Dibenzyl cis- and trans-(2-benzyl-5-((3-(2-nitrobenzyl)-2,4-dioxo-3,4-dihydroquinazolin-1(2H)-yl)methyl)isoxazolidin-3-yl)phosphonate] gave an IC50 ([1]; Homo sapiens, 72 h) of 26.6 ± 4.69 µM, an IC50 ([2]; Homo sapiens, HT-1080, 72 h) of 59.6 ± 0.36 µM and an IC50 ([3]; Homo sapiens, MCF7, 72 h) of 59.1 ± 3.77 µM.
`O=c1c2ccccc2n(CC2CC(P(=O)(OCc3ccccc3)OCc3ccccc3)N(Cc3ccccc3)O2)c(=O)n1Cc1cccc([N+](=O)[O-])c1` (stereo not drawn) [cis-16f/trans-16f (96:4), Dibenzyl cis- and trans-2-benzyl-5-((3-(3-nitrobenzyl)-2,4-dioxo-3,4-dihydroquinazolin-1(2H)-yl)methyl)isoxazolidin-3-yl)phosphonate] showed an IC50 ([1]; Homo sapiens, 72 h) of 24.8 ± 2.15 µM, an IC50 ([2]; Homo sapiens, HT-1080, 72 h) of 17.1 ± 5.73 µM and an IC50 ([3]; Homo sapiens, MCF7, 72 h) of 91.7 ± 1.47 µM.
In the case of `O=c1c2ccccc2n(CC2CC(P(=O)(OCc3ccccc3)OCc3ccccc3)N(Cc3ccccc3)O2)c(=O)n1Cc1ccc([N+](=O)[O-])cc1` (stereo not drawn) [cis-16g/trans-16g (88:12), Dibenzyl cis- and trans-(2-benzyl-5-((3-(4-nitrobenzyl)-2,4-dioxo-3,4-dihydroquinazolin-1(2H)-yl)methyl)isoxazolidin-3-yl)phosphonate], the IC50 ([1]; Homo sapiens, 72 h) is reported as 21.5 ± 4.63 µM, the IC50 ([2]; Homo sapiens, HT-1080, 72 h) is reported as 16.4 ± 2.03 µM and the IC50 ([3]; Homo sapiens, MCF7, 72 h) is reported as 116 ± 9.69 µM.
For `O=c1c2ccccc2n(CC2CC(P(=O)(OCc3ccccc3)OCc3ccccc3)N(Cc3ccccc3)O2)c(=O)n1Cc1ccccc1` (stereo not drawn) [trans-16a, Dibenzyl cis- and trans-2-benzyl-5-((3-benzyl-3,4-dihydro-2,4-dioxoquinazolin-1(2H)-yl)methyl)isoxazolidin-3-yl-3-phosphonate], the IC50 [1] was 12.7 ± 3.45 µM, the IC50 [2] was 40.5 ± 5.44 µM and the IC50 [3] was 96 ± 4.66 µM.
